Laboratory results from patent US20240174714A1, “TREATMENT OF SKIN DISORDERS” (priority 2021, published 2024).
Read-outs that look alike come from different tables or passages of the source. Square brackets hold non-standard residues; d marks the D form. Peptide text beside a SMILES is read from it. * marks the point of attachment. NH((S)CH(Me)CH2NMe2) = C[C@@H](CN(C)C)N*; NH(1-CH2NMe2-cBu) = CN(C)CC1(N*)CCC1; Gly(octyl) = CCCCCCCC[C@H](N)C(=O)O; Oxazole4CO(2-Me) = Cc1nc(C(=O)*)co1; X4 = COc1ccc2cc(C(=O)*)c(=O)oc2c1; Benzoyl(4-F) = O=C(c1ccc(F)cc1)*; hCha = N[C@@H](CCC1CCCCC1)C(=O)O; Pyrrole2CO = O=C(c1ccc[nH]1)*; X6 = O=C(c1ccnc2cc(Cl)ccc12)*; X10 = O=C(c1ccc2cccnc2c1)*; X12 = CN(C)CC1(N*)CCCC1; Aib = CC(C)(N)C(=O)O; X11 = CN(CCN*)CC(F)F; Bz = O=C(c1ccccc1)*; βAla = NCCC(=O)O

Experiments:
[1] = tested on: intracellular Leishmania donovani MHOM-ET-67/L82 amastigotes; assay: In vitro antiprotozoal assay, intracellular amastigotes; format: cell-based
Experimental: (§1) The testing of the inventive compounds against Leishmania donovani (strain MHOM/ET/67/L82) was performed in 96 well plates at concentrations in serial dilutions. Tests were done in triplicate.

[2] = tested on: axenic Leishmania donovani MHOM-ET-67/L82 amastigotes; assay: In vitro antiprotozoal assay, axenic amastigotes; format: cell-based
Experimental: as §1

[3] = Cytotoxicity assay (Alamar Blue) on L6-cells; format: cell-based, rat
Experimental: Tests were done in triplicate.
The plates were incubated for additional 2 h.

[4] = intracellular amastigotes, read-out: L.don.InMac IC50
[5] = axenic amastigotes, read-out: L.don.ax. IC50
[6] = rat myoblast L6 cells, read-out: Cytotox L6 IC50

| Compound | IC50 [2, 5] | IC50 at 68 h [3, 6] | IC50 at 68 h ([3]; rat) | other results |
| --- | --- | --- | --- | --- |
| CCCCCCCC[C@H](NC(=O)[C@@H]1CCCN1C(=O)c1ccccc1)C(=O)N[C@@H](CC(C)C)C(=O)NC(C)(C)C(=O)N[C@@H](CC(C)C)C(=O)N[C@@H](CC(C)C)C(=O)NC(C)(C)C(=O)NC(C)(C)C(=O)NCCC(=O)N[C@@H](C)CN(C)C [Compound 5649, (2S)-2-{[(2S)-1-benzoylpyrrolidin-2-yl]formamido}-N-[(1S)-1-[(1-{[(1S)-1-{[(1S)-1-{[1-({1-[(2-{[(2S)-1-(dimethylamino)propan-2-yl]carbamoyl}ethyl)carbamoyl]-1-methylethyl}carbamoyl)-1-methylethyl]carbamoyl}-3-methylbutyl]carbamoyl}-3-methylbutyl]carbamoyl}-1-methylethyl)carbamoyl]-3-methylbutyl]decanamide] (Bz-P[Gly(octyl)]L[Aib]LL[Aib][Aib][βAla]-{NH((S)CH(Me)CH2NMe2)}) | 3.5 nM | 274 nM | – | IC50 [1, 4]: 27.2 nM |
| CCCCCCCC[C@H](NC(=O)[C@@H]1CCCN1C(=O)c1ccnc2cc(Cl)ccc12)C(=O)N[C@@H](CC(C)C)C(=O)NC(C)(C)C(=O)N[C@@H](CC(C)C)C(=O)N[C@@H](CC(C)C)C(=O)NC(C)(C)C(=O)NC(C)(C)C(=O)NCCC(=O)N[C@@H](C)CN(C)C [Compound 5768, (2S)-2-{[(2S)-1-(7-chloroquinoline-4-carbonyl)pyrrolidin-2-yl]formamido}-N-[(1S)-1-[(1-{[(1S)-1-{[(1S)-1-{[1-({1-[(2-{[(2S)-1-(dimethylamino)propan-2-yl]carbamoyl}ethyl)carbamoyl]-1-methylethyl}carbamoyl)-1-methylethyl]carbamoyl}-3-methylbutyl]carbamoyl}-3-methylbutyl]carbamoyl}-1-methylethyl)carbamoyl]-3-methylbutyl]decanamide] (X6-P[Gly(octyl)]L[Aib]LL[Aib][Aib][βAla]-{NH((S)CH(Me)CH2NMe2)}) | 33.5 nM | – | 627 nM | IC50 [1, 4]: 257 nM |
| CCCCCCCC[C@H](NC(=O)[C@@H]1CCCN1C(=O)c1cc2ccc(OC)cc2oc1=O)C(=O)N[C@@H](CC(C)C)C(=O)NC(C)(C)C(=O)N[C@@H](CC(C)C)C(=O)N[C@@H](CC(C)C)C(=O)NC(C)(C)C(=O)NC(C)(C)C(=O)NCCC(=O)N[C@@H](C)CN(C)C [Compound 5769, (2S)-N-[(1S)-1-[(1-{[(1S)-1-{[(1S)-1-{[1-({1-[(2-{[(2S)-1-(dimethylamino)propan-2-yl]carbamoyl}ethyl)carbamoyl]-1-methylethyl}carbamoyl)-1-methylethyl]carbamoyl}-3-methylbutyl]carbamoyl}-3-methylbutyl]carbamoyl}-1-methylethyl)carbamoyl]-3-methylbutyl]-2-{[(2S)-1-(7-methoxy-2-oxo-2H-chromene-3-carbonyl)pyrrolidin-2-yl]formamido}decanamide] (X4-P[Gly(octyl)]L[Aib]LL[Aib][Aib][βAla]-{NH((S)CH(Me)CH2NMe2)}) | 8.1 nM | – | 423 nM | IC50 [1, 4]: 216 nM |
| CCCCCCCC[C@H](NC(=O)[C@@H]1CCCN1C(=O)c1ccc2cccnc2c1)C(=O)N[C@@H](CC(C)C)C(=O)NC(C)(C)C(=O)N[C@@H](CC(C)C)C(=O)N[C@@H](CC(C)C)C(=O)NC(C)(C)C(=O)NC(C)(C)C(=O)NCCC(=O)N[C@@H](C)CN(C)C [Compound 5938, (2S)-N-[(1S)-1-[(1-{[(1S)-1-{[(1S)-1-{[1-({1-[(2-{[(2S)-1-(dimethylamino)propan-2-yl]carbamoyl}ethyl)carbamoyl]-1-methylethyl}carbamoyl)-1-methylethyl]carbamoyl}-3-methylbutyl]carbamoyl}-3-methylbutyl]carbamoyl}-1-methylethyl)carbamoyl]-3-methylbutyl]-2-{[(2S)-1-(quinoline-7-carbonyl)pyrrolidin-2-yl]formamido}decanamide] (X10-P[Gly(octyl)]L[Aib]LL[Aib][Aib][βAla]-{NH((S)CH(Me)CH2NMe2)}) | – | 714 nM | – | IC50 [2]: 13 nM |
| CCCCCCCC[C@H](NC(=O)[C@@H]1CCCN1C(=O)c1ccc[nH]1)C(=O)N[C@@H](CC(C)C)C(=O)NC(C)(C)C(=O)N[C@@H](CC(C)C)C(=O)N[C@@H](CC(C)C)C(=O)NC(C)(C)C(=O)NC(C)(C)C(=O)NCCC(=O)N[C@@H](C)CN(C)C [Compound 5939, (2S)-N-[(1S)-1-[(1-{[(1S)-1-{[(1S)-1-{[1-({1-[(2-{[(2S)-1-(dimethylamino)propan-2-yl]carbamoyl}ethyl)carbamoyl]-1-methylethyl}carbamoyl)-1-methylethyl]carbamoyl}-3-methylbutyl]carbamoyl}-3-methylbutyl]carbamoyl}-1-methylethyl)carbamoyl]-3-methylbutyl]-2-{[(2S)-1-(1H-pyrrole-2-carbonyl)pyrrolidin-2-yl]formamido}decanamide] (Pyrrole2CO-P[Gly(octyl)]L[Aib]LL[Aib][Aib][βAla]-{NH((S)CH(Me)CH2NMe2)}) | 8 nM | – | 611 nM | – |
| CCCCCCCC[C@H](NC(=O)[C@@H]1CCCN1C(=O)c1coc(C)n1)C(=O)N[C@@H](CC(C)C)C(=O)NC(C)(C)C(=O)N[C@@H](CC(C)C)C(=O)N[C@@H](CC(C)C)C(=O)NC(C)(C)C(=O)NC(C)(C)C(=O)NCCC(=O)NC1(CN(C)C)CCC1 [Compound 6253, (2S)-N-[(1S)-1-[(1-{[(1S)-1-{[(1S)-1-({1-[(1-{[2-({1-[(dimethylamino)methyl]cyclobutyl}carbamoyl)ethyl]carbamoyl}-1-methylethyl)carbamoyl]-1-methylethyl}carbamoyl)-3-methylbutyl]carbamoyl}-3-methylbutyl]carbamoyl}-1-methylethyl)carbamoyl]-3-methylbutyl]-2-{[(2S)-1-(2-methyl-1,3-oxazole-4-carbonyl)pyrrolidin-2-yl]formamido}decanamide] ({Oxazole4CO(2-Me)}-P[Gly(octyl)]L[Aib]LL[Aib][Aib][βAla]-{NH(1-CH2NMe2-cBu)}) | 2.6 nM | – | 945 nM | – |
| CCCCCCCC[C@H](NC(=O)[C@@H]1CCCN1C(=O)c1coc(C)n1)C(=O)N[C@@H](CC(C)C)C(=O)NC(C)(C)C(=O)N[C@@H](CC(C)C)C(=O)N[C@@H](CC(C)C)C(=O)NC(C)(C)C(=O)NC(C)(C)C(=O)NCCC(=O)NC1(CN(C)C)CCCC1 [Compound 6254, (2S)-N-[(1S)-1-[(1-{[(1S)-1-{[(1S)-1-({1-[(1-{[2-({1-[(dimethylamino)methyl]cyclopentyl}carbamoyl)ethyl]carbamoyl}-1-methylethyl)carbamoyl]-1-methylethyl}carbamoyl)-3-methylbutyl]carbamoyl}-3-methylbutyl]carbamoyl}-1-methylethyl)carbamoyl]-3-methylbutyl]-2-{[(2S)-1-(2-methyl-1,3-oxazole-4-carbonyl)pyrrolidin-2-yl]formamido}decanamide] ({Oxazole4CO(2-Me)}-P[Gly(octyl)]L[Aib]LL[Aib][Aib][βAla]-X12) | 2.5 nM | – | 528 nM | – |
| Cc1nc(C(=O)N2CCC[C@H]2C(=O)N[C@@H](Cc2ccccc2)C(=O)N[C@@H](CC(C)C)C(=O)NC(C)(C)C(=O)N[C@@H](CC(C)C)C(=O)N[C@@H](CC(C)C)C(=O)NC(C)(C)C(=O)NC(C)(C)C(=O)NCCC(=O)NC2(CN(C)C)CCC2)co1 [Compound 6328, (2S)-N-(1-{[(1S)-1-{[(1S)-1-({1-[(1-{[2-({1-[(dimethylamino)methyl]cyclobutyl}carbamoyl)ethyl]carbamoyl}-1-methylethyl)carbamoyl]-1-methylethyl}carbamoyl)-3-methylbutyl]carbamoyl}-3-methylbutyl]carbamoyl}-1-methylethyl)-4-methyl-2-[(2S)-2-{[(2S)-1-(2-methyl-1,3-oxazole-4-carbonyl)pyrrolidin-2-yl]formamido}-3-phenylpropanamido]pentanamide] (HELM PEPTIDE1{[Cc1nc(C(=O)[*:2])co1].P.F.L.[Aib].L.L.[Aib].[Aib].[bAla].[CN(C)CC1(N[*:1])CCC1]}$$$$V2.0) | 381 nM | – | 8720 nM | – |
| Cc1nc(C(=O)N2CCC[C@H]2C(=O)N[C@@H](CCC2CCCCC2)C(=O)N[C@@H](CC(C)C)C(=O)NC(C)(C)C(=O)N[C@@H](CC(C)C)C(=O)N[C@@H](CC(C)C)C(=O)NC(C)(C)C(=O)NC(C)(C)C(=O)NCCC(=O)NCCN(C)CC(F)F)co1 [Compound 6488, (2S)-2-[(2S)-4-cyclohexyl-2-{[(2S)-1-(2-methyl-1,3-oxazole-4-carbonyl)pyrrolidin-2-yl]formamido}butanamido]-N-(1-{[(1S)-1-{[(1S)-1-({1-[(1-{[2-({2-[(2,2-difluoroethyl)(methyl)amino]ethyl}carbamoyl)ethyl]carbamoyl}-1-methylethyl)carbamoyl]-1-methylethyl}carbamoyl)-3-methylbutyl]carbamoyl}-3-methylbutyl]carbamoyl}-1-methylethyl)-4-methylpentanamide] ({Oxazole4CO(2-Me)}-P[hCha]L[Aib]LL[Aib][Aib][βAla]-X11) | 429 nM | 7180 nM | – | – |
| CC(C)C[C@H](NC(=O)[C@H](CCC1CCCCC1)NC(=O)[C@@H]1CCCN1C(=O)c1ccc(F)cc1)C(=O)NC(C)(C)C(=O)N[C@@H](CC(C)C)C(=O)N[C@@H](CC(C)C)C(=O)NC(C)(C)C(=O)NC(C)(C)C(=O)NCCC(=O)NCCN(C)CC(F)F [Compound 8342, (2S)-2-[(2S)-4-cyclohexyl-2-{[(2S)-1-(4-fluorobenzoyl)pyrrolidin-2-yl]formamido}butanamido]-N-(1-{[(1S)-1-{[(1S)-1-({1-[(1-{[2-({2-[(2,2-difluoroethyl)(methyl)amino]ethyl}carbamoyl)ethyl]carbamoyl}-1-methylethyl)carbamoyl]-1-methylethyl}carbamoyl)-3-methylbutyl]carbamoyl}-3-methylbutyl]carbamoyl}-1-methylethyl)-4-methylpentanamide] ({Benzoyl(4-F)}-P[hCha]L[Aib]LL[Aib][Aib][βAla]-X11) | – | 6790 nM | – | – |
| CCCCCCCCCCCCCCCCOP(=O)([O-])OCC[N+](C)(C)C [Miltefosine, reference compound] | – | – | – | IC50 ([1]; Leishmania donovani, reference compound, L.don.InMac, read-out: IC50 Concurrent): 162 nM; IC50 ([2]; Leishmania donovani, reference compound, L.don.ax., read-out: IC50 Concurrent): 162 nM |
